Target: wild-type human cardiac sodium channel, hNav1.5 (Homo sapiens, UniProt Q14524)
Assay: Late INa screening assay (automated whole cell patch clamp, PatchXpress)
Type: cell-based
Conditions: compound at 1 μM; HEK293 cells expressing hNav1.5; late INa generated with 10 μM Tefluthrin (or 50 nM ATX II); read-out: LateINa_1 uM (percent block of late INa)
Protocol: The late sodium current (Late INa) and peak sodium current (Peak INa) assays are performed on an automated electrophysiology platform, PatchXpress 7000A (MDS Analytical Technologies, Sunnyvale, Calif.), which uses the whole cell patch clamp technique to measure currents through the cell membrane of up to 16 cells at a time. The assay uses an HEK293 (human embryonic kidney) cell line heterologously expressing the wild-type human cardiac sodium channel, hNav1.5, purchased from Millipore (Billerica, Mass.). No beta subunits were coexpressed with the Na channel alpha subunit. Cells are maintained with standard tissue culture procedures and stable channel expression is maintained with 400 μg/ml Geneticin in the culture medium. […] Experiments are carried out at 24-27° C.
For both the Late INa and Peak INa assays, series resistance compensation is set to 50% and whole-cell compensation is performed automatically. […] Currents through open sodium channels are automatically recorded and stored in the DataXpress2 database (MDS Analytical Technologies, Sunnyvale, Calif.). Analysis is performed using DataXpress2 analysis software and data are compiled in Excel.
Compound stocks are routinely made in glass vials to 10 mM in dimethyl sulfoxide (DMSO). In some cases, when compounds are not soluble in DMSO, they are made in 100% ethanol. Stocks are sonicated as necessary. The extracellular solution for screening Late INa is composed of: 140 mM NaCl, 4 mM KCl, 1.8 mM CaCl2, 0.75 mM MgCl2, and 5 mM HEPES with pH adjusted to 7.4 using NaOH. The extracellular solution for screening Peak INa is composed of: 20 mM NaCl, 120 mM N-methyl-D glucamine, 4 mM KCl, 1.8 mM CaCl2, 0.75 mM MgCl2, and 5 mM HEPES with pH adjusted to 7.4 using HCl. The intracellular solution used to perfuse the inside of the cells for both the Late INa and Peak INa assays contains: 120 mM CsF, 20 mM CsCl, 5 mM EGTA, 5 mM HEPES and pH adjusted to 7.4 with CsOH. […] The 0Na extracellular solution used at the end of each experiment for the Late INa and Peak INa assays to measure baseline current contains: 140 mM N-methyl-D-glucamine; 4 mM KCl; 1.8 mM CaCl2; 0.75 mM MgCl2; 5 mM HEPES and pH was adjusted to 7.4 with HCl.
For the Late INa assay, sodium channels are activated every 10 seconds (0.1 Hz) by depolarizing the cell membrane to −20 mV for 250 milliseconds (ms) from a holding potential of −120 mV. In response to a −20 mV voltage step, typical Nav1.5 sodium currents activate rapidly to a peak negative current and then inactivate nearly completely within […].
All compounds are tested to determine their activity in blocking the late sodium current. Late INa current is generated by adding 10 μM Tefluthrin (pyrethroid) to the extracellular solution while recording Na currents For some experiments, 50 nM ATX II (sea anemone toxin), another late INa activator, was used to generate the late component. […] After establishing the whole cell recording configuration, late INa activators are added to each well 4 times over a 16-17 minute period so that the late component of the Na current reaches a stable value. […] Measurements are made at the end of exposure to the third compound addition and values are normalized to the current level when all Na^+ is removed from the extracellular solution after two additions of 0Na-ECF. Results are reported as percent block of late INa

Chain of wild-type human cardiac sodium channel, hNav1.5 (Q14524 whole entry): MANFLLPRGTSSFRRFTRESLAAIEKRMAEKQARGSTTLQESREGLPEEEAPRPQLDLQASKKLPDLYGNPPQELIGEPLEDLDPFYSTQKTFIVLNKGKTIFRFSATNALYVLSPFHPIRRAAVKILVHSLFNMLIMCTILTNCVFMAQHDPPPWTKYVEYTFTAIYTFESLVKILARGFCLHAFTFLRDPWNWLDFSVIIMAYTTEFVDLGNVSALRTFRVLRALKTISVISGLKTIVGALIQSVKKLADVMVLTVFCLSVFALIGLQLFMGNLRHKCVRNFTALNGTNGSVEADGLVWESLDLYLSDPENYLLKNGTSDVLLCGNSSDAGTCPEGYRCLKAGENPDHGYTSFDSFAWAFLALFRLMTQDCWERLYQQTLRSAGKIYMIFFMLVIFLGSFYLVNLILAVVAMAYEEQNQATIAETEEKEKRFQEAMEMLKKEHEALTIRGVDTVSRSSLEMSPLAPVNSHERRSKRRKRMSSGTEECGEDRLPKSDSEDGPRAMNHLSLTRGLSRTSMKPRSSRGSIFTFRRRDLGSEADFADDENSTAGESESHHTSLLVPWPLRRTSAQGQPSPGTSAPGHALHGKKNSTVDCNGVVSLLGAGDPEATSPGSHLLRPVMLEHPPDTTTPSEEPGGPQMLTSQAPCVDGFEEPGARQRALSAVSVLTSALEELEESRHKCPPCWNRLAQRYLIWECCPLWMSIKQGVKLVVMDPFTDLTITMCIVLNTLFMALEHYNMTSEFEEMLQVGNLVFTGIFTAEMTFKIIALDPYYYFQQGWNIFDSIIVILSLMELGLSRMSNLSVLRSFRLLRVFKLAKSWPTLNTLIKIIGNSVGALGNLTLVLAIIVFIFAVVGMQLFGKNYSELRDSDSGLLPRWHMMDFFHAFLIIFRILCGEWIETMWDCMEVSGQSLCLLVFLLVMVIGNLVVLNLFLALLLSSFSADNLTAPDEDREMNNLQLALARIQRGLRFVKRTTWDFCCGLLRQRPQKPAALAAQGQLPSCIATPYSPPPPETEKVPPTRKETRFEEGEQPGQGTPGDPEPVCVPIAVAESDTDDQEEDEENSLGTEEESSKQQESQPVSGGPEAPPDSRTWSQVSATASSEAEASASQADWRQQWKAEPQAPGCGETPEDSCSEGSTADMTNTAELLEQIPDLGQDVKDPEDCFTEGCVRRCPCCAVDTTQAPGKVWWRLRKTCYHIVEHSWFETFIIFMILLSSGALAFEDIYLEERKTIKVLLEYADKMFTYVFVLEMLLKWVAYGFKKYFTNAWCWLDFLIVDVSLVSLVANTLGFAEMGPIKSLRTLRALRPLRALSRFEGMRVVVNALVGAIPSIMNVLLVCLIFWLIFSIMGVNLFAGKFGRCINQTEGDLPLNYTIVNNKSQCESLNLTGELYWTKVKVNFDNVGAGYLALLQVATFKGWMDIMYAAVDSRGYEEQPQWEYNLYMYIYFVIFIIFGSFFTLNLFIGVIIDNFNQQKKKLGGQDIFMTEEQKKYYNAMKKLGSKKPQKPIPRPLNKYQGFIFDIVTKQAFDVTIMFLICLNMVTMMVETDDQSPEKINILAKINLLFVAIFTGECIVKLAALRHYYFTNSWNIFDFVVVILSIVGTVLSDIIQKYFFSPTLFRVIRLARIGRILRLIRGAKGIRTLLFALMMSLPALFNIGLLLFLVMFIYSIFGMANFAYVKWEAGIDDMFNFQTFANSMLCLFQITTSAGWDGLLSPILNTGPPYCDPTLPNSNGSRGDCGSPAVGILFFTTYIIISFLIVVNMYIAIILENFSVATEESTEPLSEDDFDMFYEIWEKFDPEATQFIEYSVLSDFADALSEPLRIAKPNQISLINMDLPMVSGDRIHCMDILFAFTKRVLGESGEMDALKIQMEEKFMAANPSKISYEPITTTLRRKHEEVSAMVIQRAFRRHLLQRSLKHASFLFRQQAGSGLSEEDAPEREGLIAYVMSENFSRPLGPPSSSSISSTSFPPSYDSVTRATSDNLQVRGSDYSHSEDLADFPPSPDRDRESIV

Row | SMILES | inhibition at 1 µM [%]
1 | Fc1cc(-c2ccc3nnc(C(F)(F)F)n3n2)ccc1OC(F)(F)F [BHN-209, 6-[3-fluoro-4-(trifluoromethoxy)phenyl]-3-(trifluoromethyl)[1,2,4]triazolo[4,3-b]pyridazine] | 61
2 | FC(F)(F)Oc1ccc(-c2ccc3nnc(COCc4ccccc4C(F)(F)F)n3c2)cc1 [BHN-239, 6-[4-(trifluoromethoxy)phenyl]-3-({[2-(trifluoromethyl)benzyl]oxy}methyl)[1,2,4]triazolo[4,3-a]pyridine] | 65.1
3 | FC(F)(F)c1nnc2ccc(-c3ccc4ccccc4c3)cn12 [BHN-106, 6-(naphthalen-2-yl)-3-(trifluoromethyl)[1,2,4]triazolo[4,3-a]pyridine] | 38.2
4 | CC(C)(O)C#Cc1nnc2ccc(-c3ccc(OC(F)(F)F)cc3)cn12 [BHN-173, 2-methyl-4-{6-[4-(trifluoromethoxy)phenyl][1,2,4]triazolo[4,3-a]pyridin-3-yl}but-3-yn-2-ol] | 30.8
5 | OCCOC(F)(F)c1nnc2ccc(-c3ccc(OC(F)(F)F)cc3)cn12 [BHN-157, 2-(difluoro{6-[4-(trifluoromethoxy)phenyl][1,2,4]triazolo[4,3-a]pyridin-3-yl}methoxy)ethanol] | 18.3
6 | N#CCOc1cc(OC(F)(F)F)ccc1-c1ccc2nnc(C(F)(F)F)n2c1 [BHN-181, {5-(trifluoromethoxy)-2-[3-(trifluoromethyl)[1,2,4]triazolo[4,3-a]pyridin-6-yl]phenoxy}acetonitrile] | 18.7
7 | COc1cc(C(F)(F)F)ccc1-c1ccc2nnc(C(F)(F)F)n2c1 [BHN-105, 6-[2-methoxy-4-(trifluoromethyl)phenyl]-3-(trifluoromethyl)[1,2,4]triazolo[4,3-a]pyridine] | 49.3
8 | CC(OC(F)(F)c1nnc2ccc(-c3ccc(OC(F)(F)F)cc3)cn12)c1ccc(Cl)cc1Cl (stereo not shown) [BHN-247, 3-{[1-(2,4-dichlorophenyl)ethoxy](difluoro)methyl}-6-[4-(trifluoromethoxy)phenyl][1,2,4]triazolo[4,3-a]pyridine] | 74.1
9 | CC1(c2ccc(-c3ccc4nnc(C(F)(F)F)n4c3)cc2)OCCO1 [BHN-162, 6-[4-(2-methyl-1,3-dioxolan-2-yl)phenyl]-3-(trifluoromethyl)[1,2,4]triazolo[4,3-a]pyridine] | 29.9
10 | Cc1ccccc1Oc1nnc2ccc(-c3ccc(OC(F)(F)F)cc3)cn12 [BHN-273, 3-(2-methylphenoxy)-6-[4-(trifluoromethoxy)phenyl][1,2,4]triazolo[4,3-a]pyridine] | 68.7
11 | FC(F)(F)Oc1ccc(-c2ccc3nnc(COCc4ccc(Cl)cc4Cl)n3c2)cc1 [BHN-250, 3-{[(2,4-dichlorobenzyl)oxy]methyl}-6-[4-(trifluoromethoxy)phenyl][1,2,4]triazolo[4,3-a]pyridine] | 79.1
12 | COCC(F)(F)c1nnc2ccc(-c3ccc(OCC(F)(F)F)nc3)cn12 [BHN-144, 3-(1,1-difluoro-2-methoxyethyl)-6-[6-(2,2,2-trifluoroethoxy)pyridin-3-yl][1,2,4]triazolo[4,3-a]pyridine] | 36.4
13 | Fc1cc(-c2ccc3nnc(C(F)(F)F)n3n2)cc(F)c1Oc1ccccc1 [BHN-210, 6-(3,5-difluoro-4-phenoxyphenyl)-3-(trifluoromethyl)[1,2,4]triazolo[4,3-b]pyridazine] | 33.8
14 | N#Cc1ccc(C(F)(F)Oc2ccc(-c3ccc4nnc(C(F)(F)F)n4c3)cc2)cc1 [BHN-280, 4-(difluoro{4-[3-(trifluoromethyl)[1,2,4]triazolo[4,3-a]pyridin-6-yl]phenoxy}methyl)benzonitrile] | 63.7
15 | FC(F)(F)COc1ccc(-c2ccc3nnc(C(F)(F)F)n3c2)cn1 [BHN-92, 6-[6-(2,2,2-trifluoroethoxy)pyridin-3-yl]-3-(trifluoromethyl)[1,2,4]triazolo[4,3-a]pyridine] | 63.5
16 | CC(=O)Nc1cc(OC(F)(F)F)ccc1-c1ccc2nnc(-c3ccc(OC(F)(F)F)cc3)n2c1 [BHN-116, N-[5-(trifluoromethoxy)-2-{3-[4-(trifluoromethoxy)phenyl][1,2,4]triazolo[4,3-a]pyridin-6-yl}phenyl]acetamide] | 16.4
17 | CC(OC(F)(F)c1cccnc1)c1nnc2ccc(-c3ccc(OC(F)(F)F)cc3)cn12 (stereo not shown) [BHN-249, 3-{1-[difluoro(pyridin-3-yl)methoxy]ethyl}-6-[4-(trifluoromethoxy)phenyl][1,2,4]triazolo[4,3-a]pyridine] | 22.7
18 | FC(F)(F)c1ccc(C#Cc2ccc3nnc(Oc4ccccc4)n3c2)cc1 [BHN-304, 3-phenoxy-6-{[4-(trifluoromethyl)phenyl]ethynyl}[1,2,4]triazolo[4,3-a]pyridine] | 28.2
19 | FC(F)(F)Oc1ccc(-c2ccc3nnc(C(F)(F)OCc4ccccc4)n3c2)cc1 [BHN-148, 3-[(benzyloxy)(difluoro)methyl]-6-[4-(trifluoromethoxy)phenyl][1,2,4]triazolo[4,3-a]pyridine] | 71.7
20 | FC(F)(F)Oc1ccc(-c2ccc3nnc(C(F)(F)OCC4CC4)n3c2)cc1 [BHN-214, 3-[(cyclopropylmethoxy)(difluoro)methyl]-6-[4-(trifluoromethoxy)phenyl][1,2,4]triazolo[4,3-a]pyridine] | 80.8
21 | CC(C)Oc1cc(OC(F)(F)F)ccc1-c1ccc2nnc(C(F)(F)F)n2c1 [BHN-223, 6-[2-(propan-2-yloxy)-4-(trifluoromethoxy)phenyl]-3-(trifluoromethyl)[1,2,4]triazolo[4,3-a]pyridine] | 54.5
22 | FC(F)(F)Oc1ccc(-c2ccc3nnc(-c4ccc(OC(F)(F)F)cc4)n3c2)cc1 [BHN-55, 3,6-bis[4-(trifluoromethoxy)phenyl][1,2,4]triazolo[4,3-a]pyridine] | 89.1
23 | Cc1cc(COC(F)(F)c2nnc3ccc(-c4ccc(OC(F)(F)F)cc4)cn23)c2ccccc2n1 [BHN-289, 4-[(difluoro{6-[4-(trifluoromethoxy)phenyl][1,2,4]triazolo[4,3-a]pyridin-3-yl}methoxy)methyl]-2-methylquinoline] | 47.9
24 | FC(F)(F)c1ncc2ccc(-c3ncco3)cn12 [BHN-183, 6-(1,3-oxazol-2-yl)-3-(trifluoromethyl)imidazo[1,5-a]pyridine] | 19.5
25 | c1ccc(Oc2ccc(-c3ccc4nnc(C5CC5)n4n3)cc2)cc1 [BHN-39, 3-cyclopropyl-6-(4-phenoxyphenyl)[1,2,4]triazolo[4,3-b]pyridazine] | 44.4
26 | Fc1ccc(Oc2ccc(-c3ccc4nnc(C(F)(F)F)n4c3)cc2)cc1 [BHN-64, 6-[4-(4-fluorophenoxy)phenyl]-3-(trifluoromethyl)[1,2,4]triazolo[4,3-a]pyridine] | 38.2

Same assay, conditions: compound at 10 μM; HEK293 cells expressing hNav1.5; late INa generated with 10 μM Tefluthrin (or 50 nM ATX II); read-out: LateINa_10 uM (percent block of late INa)

Row | SMILES | inhibition at 10 µM [%]
27 | FC(F)(F)Oc1ccc(-c2ccc3nncn3n2)cc1 [BHN-25, 6-[4-(trifluoromethoxy)phenyl][1,2,4]triazolo[4,3-b]pyridazine] | 39
28 | FC(F)(F)COc1ccc(-c2ccc3nnc(C(F)(F)F)n3c2)cn1 [BHN-92, 6-[6-(2,2,2-trifluoroethoxy)pyridin-3-yl]-3-(trifluoromethyl)[1,2,4]triazolo[4,3-a]pyridine] | 76.3
29 | CCC(=O)Nc1cc(-c2ccc(OC(F)(F)F)cc2)cn2c(C)nnc12 [BHN-85, N-{3-methyl-6-[4-(trifluoromethoxy)phenyl][1,2,4]triazolo[4,3-a]pyridin-8-yl}propanamide] | 20.5
30 | Nc1cc(-c2ccc(OC(F)(F)F)cc2)cn2c(-c3ccccc3)nnc12 [BHN-52, 3-phenyl-6-[4-(trifluoromethoxy)phenyl][1,2,4]triazolo[4,3-a]pyridin-8-amine] | 44.9
31 | FC(F)(F)Oc1ccc(-c2ccc3nnc(-c4ccc(OC(F)(F)F)cc4)n3c2)cc1 [BHN-55, 3,6-bis[4-(trifluoromethoxy)phenyl][1,2,4]triazolo[4,3-a]pyridine] | 90.7
32 | c1ccc(Oc2ccc(-c3ccc4nnc(C5CC5)n4n3)cc2)cc1 [BHN-39, 3-cyclopropyl-6-(4-phenoxyphenyl)[1,2,4]triazolo[4,3-b]pyridazine] | 74.3
33 | FC(F)(F)c1cc(-c2ccc3nnc(C(F)(F)F)n3c2)ccc1Cl [BHN-10, 6-[4-chloro-3-(trifluoromethyl)phenyl]-3-(trifluoromethyl)[1,2,4]triazolo[4,3-a]pyridine] | 51.2
34 | Fc1ccc(Oc2ccc(-c3ccc4nnc(C(F)(F)F)n4c3)cc2)cc1 [BHN-64, 6-[4-(4-fluorophenoxy)phenyl]-3-(trifluoromethyl)[1,2,4]triazolo[4,3-a]pyridine] | 69.6

From patent publication US8952034B2, “Fused heterocyclic compounds as ion channel modulators” (Gilead Sciences, Inc., priority 2009, dated 2015)
